Assay results published in ChEMBL document CHEMBL1145650, “5-Aryluracils as potent GnRH antagonists-Characterization of atropisomers” (Bioorg Med Chem Lett, 2008).
pIC50, pKi: −log10 of the molar value.

What was measured:
[1] = molecular target: T1, Gonadotropin-releasing hormone receptor (Homo sapiens, UniProt P30968); test: Binding affinity to human GnRHR
T1 sequence (P30968 whole entry): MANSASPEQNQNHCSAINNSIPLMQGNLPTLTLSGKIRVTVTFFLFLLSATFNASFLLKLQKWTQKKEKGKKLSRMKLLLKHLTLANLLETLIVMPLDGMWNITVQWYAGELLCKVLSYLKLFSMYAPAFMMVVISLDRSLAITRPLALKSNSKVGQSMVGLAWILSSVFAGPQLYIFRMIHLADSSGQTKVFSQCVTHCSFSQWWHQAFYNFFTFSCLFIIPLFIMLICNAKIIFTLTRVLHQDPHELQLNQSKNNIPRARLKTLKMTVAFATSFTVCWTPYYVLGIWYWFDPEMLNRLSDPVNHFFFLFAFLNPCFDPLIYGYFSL

[2] = molecular target: T1, Gonadotropin-releasing hormone receptor; test: Antagonist activity at human GnRHR assessed as inhibition of calcium flux by IP3 assay; assay type: functional

Row | Compound | pKi [1] | pIC50 [2]
1 | CC[C@H](Cn1c(=O)c(-c2cccc(OC)c2F)c(C)n(Cc2c(F)cccc2C(F)(F)F)c1=O)NC1CCCC1 | 7.70 | –
2 | COc1cccc(-c2c(C)n(Cc3c(F)cccc3C(F)(F)F)c(=O)n(C[C@H](CO)NC3CCCC3)c2=O)c1Cl | 9.15 | 8.27
3 | COc1cccc(-c2c(C)n(Cc3c(F)cccc3C(F)(F)F)c(=O)n(C[C@H](C)NC3CCCC3)c2=O)c1 | 8.35 | –
4 | COc1cccc(-c2c(C)n(Cc3c(F)cccc3C(F)(F)F)c(=O)n(C[C@H](CO)NC3CCCC3)c2=O)c1Cl (atropisomer R) | 9.44 | 8.59
5 | COc1cccc(-c2c(C)n(Cc3c(F)cccc3C(F)(F)F)c(=O)n(C[C@H](C)NC3CCCC3)c2=O)c1F | 9.21 | 8.48
6 | COc1cccc(-c2c(C)n(Cc3c(F)cccc3C(F)(F)F)c(=O)n(C[C@H](CO)NC3CCCC3)c2=O)c1Cl (single isomer, unassigned; atropisomer) | 6.72 | 5.60
7 | COc1cccc(-c2c(C)n(Cc3c(F)cccc3C(F)(F)F)c(=O)n(C[C@H](C)NC3CCCC3)c2=O)c1Cl (single isomer, unassigned; form 1) | 7.21 | 6.41
8 | CC[C@H](Cn1c(=O)c(-c2cccc(OC)c2Cl)c(C)n(Cc2c(F)cccc2C(F)(F)F)c1=O)NC1CCCC1 | 8.13 | –
9 | CC[C@@H](Cn1c(=O)c(-c2cccc(OC)c2F)c(C)n(Cc2c(F)cccc2C(F)(F)F)c1=O)NC1CCCC1 | 8.38 | –
10 | CC[C@@H](Cn1c(=O)c(-c2cccc(OC)c2Cl)c(C)n(Cc2c(F)cccc2C(F)(F)F)c1=O)NC1CCCC1 | 8.43 | –
11 | COc1cccc(-c2c(C)n(Cc3c(F)cccc3F)c(=O)n(C[C@H](CO)NC3CCCC3)c2=O)c1F | 8.31 | –
12 | COc1cccc(-c2c(C)n(Cc3c(F)cccc3C(F)(F)F)c(=O)n(C[C@@H](C)NC3CCCC3)c2=O)c1F | 7.48 | –
13 | COc1cccc(-c2c(C)n(Cc3c(F)cccc3C(F)(F)F)c(=O)n(C[C@H](C)NC3CCCC3)c2=O)c1Cl (single isomer, unassigned; form 2) | 9.52 | 8.82
